According to patent publication US10596168B2, “Antagonists of the thyroid-stimulating hormone receptor (TSHR)” (Forschungsverbund Berlin e.V., priority 2016, dated 2020):

Each compound was assayed against T1, TSHR (Homo sapiens, UniProt P16473) (assay: cAMP accumulation radioimmunoassay (RIA), inhibition of TSH-induced cAMP production in HEK-293 cells stably expressing TSHR). Settings: inhibiting cAMP stimulation by TSH, radioimmunoassay.
T1 construct: expressed in transfected cells
Format: cell-based
Set-up: antagonistic activity (% inhibition): concentration or dose not given beside the values
Protocol: HEK-293 cells stably expressing TSHR, FSHR, LHGCR or CRF1R were cultured for 48 h and stimulated for 1 h at 37° C. with stimulation buffer (DMEM supplemented with 10 mM HEPES, 0.5% BSA, 0.25 mM 3-isobutyl-1-methylxanthine) containing the ligands as indicated. After stimulation medium was aspirated and reactions were stopped by lysis of the cells with 0.1% trifluoroacetic acid, 0.005% Triton X-100 for 30 min at 4° C. Supernatants were collected and heated at 95° C. for 10 min, dried in a rotation vacuum concentrator (Alpha-RCV, Christ) and finally stored at −20° C. until use. After reconstitution and acetylation of the samples (Jäschke et al. 2006), the cAMP content was determined using cAMP-^125I-tyrosyl methyl ester (10,000 cpm, IBL) and polyclonal rabbit anti cAMP antibodies. The radioactivity of the precipitate was determined in a γ-counter.
For the Secondary Screening cAMP accumulation was measured by radioimmunoassay (RIA) in HEK-293-TSHR cells as described before.
For the secondary screening we used a very sensitive in vitro technique, the radioimmunoassay. This assay was established and performed in HEK-293 cell line stably expressing TSHR.
Therefore RIA was used to measure the cAMP accumulation upon stimulation with TSH (EC80 value) and confirmed the desired effect for S4 and S9 with a clear decrease of cAMP production.

T1 sequence (P16473 21-764): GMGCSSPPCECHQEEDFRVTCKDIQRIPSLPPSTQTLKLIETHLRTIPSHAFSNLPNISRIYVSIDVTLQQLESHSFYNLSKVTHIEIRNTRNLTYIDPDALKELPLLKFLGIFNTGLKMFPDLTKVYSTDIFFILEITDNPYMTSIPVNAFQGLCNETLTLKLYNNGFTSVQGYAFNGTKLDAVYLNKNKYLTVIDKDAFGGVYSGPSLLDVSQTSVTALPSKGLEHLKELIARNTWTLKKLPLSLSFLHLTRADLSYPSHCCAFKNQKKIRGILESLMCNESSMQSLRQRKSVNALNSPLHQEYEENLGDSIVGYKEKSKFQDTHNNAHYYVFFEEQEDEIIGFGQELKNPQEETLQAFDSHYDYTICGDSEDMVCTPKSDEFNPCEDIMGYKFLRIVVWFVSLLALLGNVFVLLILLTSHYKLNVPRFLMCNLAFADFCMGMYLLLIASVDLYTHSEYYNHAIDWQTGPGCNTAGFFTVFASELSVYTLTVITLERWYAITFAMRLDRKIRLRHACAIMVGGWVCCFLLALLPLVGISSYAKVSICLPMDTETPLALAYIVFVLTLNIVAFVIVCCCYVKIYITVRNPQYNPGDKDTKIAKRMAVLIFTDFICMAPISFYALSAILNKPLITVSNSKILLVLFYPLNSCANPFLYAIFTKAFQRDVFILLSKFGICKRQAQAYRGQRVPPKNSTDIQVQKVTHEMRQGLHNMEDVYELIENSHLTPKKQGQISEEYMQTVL

SMILES	antagonistic activity (% inhibition) [%]
O=C1[C@@H]2[C@H]3C[C@H]([C@@H]4Sc5[nH]c(=O)sc5[C@@H](c5ccc(F)cc5)[C@H]34)[C@@H]2C(=O)N1c1ccccc1 (racemic) [Compound S124, (4aR,5R,5aS,8aS,9S,9aR,10S)-10-(4-fluorophenyl)-7-phenyl-3,4a,5,5a,8a,9,9a,10-octahydro-5,9-methanothiazolo[5′,4′:5,6]thiopyrano[2,3-f]isoindole-2,6,8(7H)-trione compound with (4aS,5S,5aR,8aR,9R,9aS,10R)-10-(4-fluorophenyl)-7-phenyl-3,4a,5,5a,8a,9,9a,10-octahydro-5,9-methanothiazolo[5′,4′:5,6]thiopyrano[2,3-f]isoindole-2,6,8(7H)-trione (1:1)]	22
COC(=O)c1ccc(N2C(=O)[C@@H]3[C@H]4C[C@H]([C@@H]5Sc6[nH]c(=O)sc6[C@@H](c6ccccc6)[C@H]45)[C@@H]3C2=O)cc1 (racemic) [Compound S87, methyl 4-((4aR,5R,5aS,8aS,9S,9aR,10S)-2,6,8-trioxo-10-phenyl-3,4a,5,5a,6,8,8a,9,9a,10-decahydro-5,9-methanothiazolo[5′,4′:5,6]thiopyrano[2,3-f]isoindol-7(2H)-yl)benzoate compound with methyl 4-((4aS,5S,5aR,8aR,9R,9aS,10R)-2,6,8-trioxo-10-phenyl-3,4a,5,5a,6,8,8a,9,9a,10-decahydro-5,9-methanothiazolo[5′,4′:5,6]thiopyrano[2,3-f]isoindol-7(2H)-yl)benzoate (1:1)]	29
COc1ccc(N2C(=O)[C@@H]3[C@H]4C[C@H]([C@@H]5Sc6[nH]c(=O)sc6[C@@H](c6ccccc6)[C@H]45)[C@@H]3C2=O)cc1 (racemic) [Compound S89, (4aR,5R,5aS,8aS,9S,9aR,10S)-7-(4-methoxyphenyl)-10-phenyl-3,4a,5,5a,8a,9,9a,10-octahydro-5,9-methanothiazolo[5′,4′:5,6]thiopyrano[2,3-t]isoindole-2,6,8(7H)-trione compound with (4aS,5S,5aR,8aR,9R,9aS,10R)-7-(4-methoxyphenyl)-10-phenyl-3,4a,5,5a,8a,9,9a,10-octahydro-5,9-methanothiazolo[5′,4′:5,6]thiopyrano[2,3-t]isoindole-2,6,8(7H)-trione (1:1)]	22
